Measured values from patent US20260308222A1, “STABILIZED ANALOGUES OF CALCITONIN” (YISSUM RESEARCH DEVELOPMENT COMPANY OF THE HEBREW …, priority 2024, published 2026).

Legend:
[1] = Circular dichroism analysis, percent α-helicity; assay type: physicochemical; conditions: 10 mM phosphate buffer pH 7, SDS; for % α helicity: 10-30 μM peptide, 2 h folding
Method: Following synthesis of the calcitonin analogues, the helicity of the calcitonin analogues was assessed by circular dichroism analysis. Far ultraviolet spectra (FIG. 6) were obtained from 195-260 nm on J-180 spectropolarimeter (Jasco) using 10-30 μM of sCT and all analogues in 10 mM phosphate buffer pH 7 and in the presence of sodium dodecyl sulphate (SDS), which were left for 2 h to allow folding. Each spectrum represents the average of 3 scans, and the mean residue ellipticity (θMRE) was calculated according to the following equation: […]
Percentage helicity of peptides as presented in Table 2 was calculated according to the following equation (Sommese, et al. 2010): […]
where n is the number of amino acids in the peptide.

[2] = Degradation in simulated gastric fluid (SGF); assay type: in vitro ADME; conditions: pH 1.3, 37 °C; for SGF t1/2: pepsin 0.2 mg/mL stock; for half-life: simulated gastric fluid, pH 1.3, pepsin 0.2 mg/mL stock, read-out: SGF t1/2
Method: sCT and its analogues were evaluated for their degradation in simulated gastric fluid (SGF). The stock solution of each analogue was prepared by dissolving 2 mg of the peptide in 1 mL water. The stock solution of pepsin enzyme was prepared by dissolving 5 mg of pepsin in 5 mL of 10 mM HCl (1 mg/mL), and then was diluted to a 0.2 mg/mL with 10 mM HCl. 7 For degradation, 34 μL of pepsin (0.2 mg/mL) was added to 100 μL of peptide (2 mg/mL) at pH 1.3 and the reaction incubated at 37° C. To monitor the degradation, 10 μL of the reaction aliquots were taken and quenched with 10 μL of 10 mM NaOH every 30 min for several hours and analyzed by HPLC using XSelect C18 column ([…], 130 A, 4.6×150 mm) with a gradient of 5-70% of 0.1% TFA in MeCN over 20 min with monitoring at 220 nm.

[3] = target: T1, calcitonin receptor (CTR) (Homo sapiens, UniProt P30988); experiment: Ca^2+ concentration assay, HEK293 CALCR-HiTSeeker cell line; assay type: cell-based; design: expressed in transfected cells; conditions: HEK293 CALCR-HiTSeeker cells; for EC50: read-out: Ca^2+ EC50
T1 sequence (P30988 25-474): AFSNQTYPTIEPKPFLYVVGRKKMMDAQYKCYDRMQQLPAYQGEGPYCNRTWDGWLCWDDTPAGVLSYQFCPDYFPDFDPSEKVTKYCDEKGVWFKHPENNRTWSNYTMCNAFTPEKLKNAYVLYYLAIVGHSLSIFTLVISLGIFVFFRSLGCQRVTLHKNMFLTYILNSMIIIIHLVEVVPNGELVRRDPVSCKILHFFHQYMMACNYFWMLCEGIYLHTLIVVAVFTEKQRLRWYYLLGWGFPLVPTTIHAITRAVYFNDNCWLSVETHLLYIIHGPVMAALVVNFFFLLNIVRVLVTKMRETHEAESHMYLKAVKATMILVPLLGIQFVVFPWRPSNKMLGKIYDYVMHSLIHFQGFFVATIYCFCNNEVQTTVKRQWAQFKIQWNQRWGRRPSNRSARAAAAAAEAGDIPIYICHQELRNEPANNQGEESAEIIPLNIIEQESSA

[4] = Degradation in simulated intestinal fluid (SIF); conditions: pH 6.8, 37 °C; for half-life: simulated intestinal fluid, pH 6.8, SIF t1/2, pancreatin 2 mg/mL stock
[5] = target: T1, calcitonin receptor (CTR); experiment: cAMP accumulation assay, U2OS Red cAMPNomad-CALCR cell line; assay type: cell-based; design: expressed in transfected cells; host or cells: U2OS Red cAMPNomad-CALCR; conditions: U2OS Red cAMPNomad-CALCR cells; for EC50: overnight incubation, read-out: cAMP EC50
[6] = tested on: human calcitonin receptor (hCTR); conditions: Potts Jr., 1992; cited from earlier work
[7] = tested on: vertebral fracture / acute back pain; conditions: cited from earlier work

Compound	helicity retained following cyclization [1]	% α helicity [1]	SGF t1/2 [2]	half-life in SGF relative to sCT ([2]; pepsin, vs sCT)	half-life [2]	Ca^2+ EC50 / efficacy [3]	EC50 [3]	stability in SIF compared to sCT ([4]; pancreatin, vs sCT)	half-life [4]	cAMP EC50 / potency [5]	EC50 [5]	affinity for hCTR [6]	potency [6]	side effects of parenteral sCT ([7]; intra-muscular and subcutaneous injections)	vertebral fracture recurrence and pain relief ([7]; Chesnut III, et al., 2000)
CC(C)C[C@@H]1NC(=O)[C@@H](NC(=O)CNC(=O)[C@H](CC(C)C)NC(=O)[C@@H](NC(=O)[C@@H]2CSSC[C@H](N)C(=O)N[C@@H](CO)C(=O)N[C@@H](CC(N)=O)C(=O)N[C@@H](CC(C)C)C(=O)N[C@@H](CO)C(=O)N[C@@H]([C@@H](C)O)C(=O)N2)C(C)C)CCCCNCc2cc(ccc2O)C[C@@H](C(=O)N2CCC[C@H]2C(=O)N[C@@H](CCCNC(=N)N)C(=O)N[C@H](C(=O)N[C@@H](CC(N)=O)C(=O)N[C@H](C(=O)NCC(=O)N[C@@H](CO)C(=O)NCC(=O)N[C@H](C(=O)N2CCC[C@H]2C(N)=O)[C@@H](C)O)[C@@H](C)O)[C@@H](C)O)NC(=O)[C@H]([C@@H](C)O)NC(=O)[C@H](CCC(N)=O)NC(=O)[C@H](CC(C)C)NC(=O)[C@H](CCCCN)NC(=O)[C@H](Cc2c[nH]cn2)NC(=O)[C@H](CC(C)C)NC(=O)[C@H](CCC(=O)O)NC(=O)[C@H](CCC(N)=O)NC(=O)[C@H](CO)NC1=O [KaY-1]	retain the high degree of helicity	93.7%	191.2 ± 66.1 min	five-fold longer half-life	190 min	similar	0.166 ± 0.0348 µM	did not exhibit any improvements	7.1 ± 0.7 min	EC50 in the nanomolar range	0.0476 ± 0.0241 µM				
CC(C)C[C@H](NC(=O)[C@H](CCCCN)NC(=O)CNC(=O)[C@H](CC(C)C)NC(=O)[C@@H](NC(=O)[C@@H]1CSSC[C@H](N)C(=O)N[C@@H](CO)C(=O)N[C@@H](CC(N)=O)C(=O)N[C@@H](CC(C)C)C(=O)N[C@@H](CO)C(=O)N[C@@H]([C@@H](C)O)C(=O)N1)C(C)C)C(=O)N[C@@H](CO)C(=O)N[C@@H](CCC(N)=O)C(=O)N[C@@H](CCC(=O)O)C(=O)N[C@@H](CC(C)C)C(=O)N[C@@H](Cc1c[nH]cn1)C(=O)N[C@@H](CCCCN)C(=O)N[C@@H](CC(C)C)C(=O)N[C@@H](CCC(N)=O)C(=O)N[C@H](C(=O)N[C@@H](Cc1ccc(O)cc1)C(=O)N1CCC[C@H]1C(=O)N[C@@H](CCCNC(=N)N)C(=O)N[C@H](C(=O)N[C@@H](CC(N)=O)C(=O)N[C@H](C(=O)NCC(=O)N[C@@H](CO)C(=O)NCC(=O)N[C@H](C(=O)N1CCC[C@H]1C(N)=O)[C@@H](C)O)[C@@H](C)O)[C@@H](C)O)[C@@H](C)O [sCT, reference compound]		98.6%	35.6 ± 0.1 min		35 min	similar	0.087 ± 0.0175 µM		7.1 ± 0.7 min	EC50 in the nanomolar range	0.0135 ± 0.0045 µM	highest affinity for the human calcitonin receptor (hCTR)	highest potency	gastrointestinal (GI) disturbances and injection site reactions	
calcitonin															reduces the risk of vertebral fracture recurrence and provides pain relief for acute back pain caused by vertebral fractures
